Data: patent US20020198177A1, “Coenzyme Q and EPA” (priority 2001, published 2002)

Legend:
mantle cell lymphoma = test: Case study: high-dose ethyl eicosapentaenoate in a patient with mantle cell lymphoma; format: in vivo, human
Source text: The following example reports that cancer developed in an individual who had been taking ethyl-EPA at a regular dose of 1 g/d. This individual had also at times in the past three years taken 2 g/d EPA but still cancer developed. […] Doses of 3 g/d to 30 g/d, and preferably of 5 g/d or 20 g/d will therefore be useful in the treatment of cancer. The EPA may be provided in any assimilable form. However, the triglyceride form and the ethyl-ester form are relatively non-irritant to the gastrointestinal tract and are the preferred forms for delivering these large amounts by mouth although other forms could be used for the intravenous route of administration. The EPA for oral administration should be in the purest form possible, at least 70% pure, preferably 80-90% pure, and very preferably 95% or more pure. Docosahexaenoic acid and linoleic acid should each be present at less than 5% and preferably less than 1%. The EPA may be formulated in capsules, liquids or emulsions such as may be required to make it appropriate for either oral or intravenous administration.
A person who had been taking 1 g/d of ethyl eicosapentaenoate as a supplement for general health reasons developed a form of non-Hodgkin's lymphoma called a mantle cell lymphoma. This is characterised by an over-production of a cell cycle controlling factor known as cyclin D1. Cyclin D1 appears to force the cells to divide continually. […] However, high doses are required to achieve the necessary levels in the cancer tissue.
(§1) It was therefore decided to give the patient 10 g/d of 96% pure ethyl eicosapentaenoate containing less than 1% docosahexaenoic acid and no detectable linoleic acid.

cyclin D1 = details: in vitro and in animal models of cancer; cited from earlier work
cancerous cells = details: cited from earlier work
[1] = format: in vivo, human
Source text: as §1
No certain cause of the abnormal rhythm was identified. One possibility may have been the high intake of EPA. EPA at very high doses might theoretically give rise to oxygenated metabolites which could disturb cardiac rhythm. EPA at low doses seems to be strongly anti-arrhythmic but it is known that many anti-arrhythmic drugs can have pro-arrhythmic actions at certain doses.
Ubiquinone may have favourable effects on cardiac rhythm (R B Singh et al, Cardiovascular Drugs and Therapy 1998; 12: 347-353). 120 mg/day was given to the patient taking high dose EPA. […] The ubiquinone was then stopped after ten days.

[2] = ubiquinone 120 mg/day added to high dose EPA, second day

Row | Structure (SMILES) | effect on the patient's palpable tumours (mantle cell lymphoma; 10 g/d of 96% pure ethyl eicosapentaenoate, sixth day of treatment, person) | cancer size (mantle cell lymphoma; dose of EPA increased to 10 g/day, within a matter of days) | management of cancer at low dose (mantle cell lymphoma; doses of EPA of 2 g/day or less, cancer developed on 1 g/d, at times 2 g/d) | synthesis of cyclin D1 (cyclin D1) | growth of cancerous cells (cancerous cells) | heart rate and rhythm [1, 2] | heart rate at rest [1, 2] [min⁻¹] | cardiac rate and rhythm abnormality on continued treatment ([1]; ubiquinone plus high dose of EPA over a period of four months) | heart rate and rhythm on reintroducing ubiquinone ([1]; ubiquinone reintroduced, high dose EPA continued) | heart rate and rhythm after stopping ubiquinone ([1]; ubiquinone stopped after ten days, four days after stopping, high dose EPA continued)
1 | CC/C=C\C/C=C\C/C=C\C/C=C\C/C=C\CCCC(=O)OCC [ethyl eicosapentaenoate] | began to regress | reduced dramatically in size | likely to be ineffective | able to inhibit the synthesis of cyclin D1 | could inhibit the growth of cancerous cells |  |  |  |  | 
2 | COC1=C(OC)C(=O)C(C/C=C(\C)CC/C=C(\C)CC/C=C(\C)CC/C=C(\C)CC/C=C(\C)CC/C=C(\C)CC/C=C(\C)CC/C=C(\C)CC/C=C(\C)CCC=C(C)C)=C(C)C1=O [ubiquinone] |  |  |  |  |  | returned to normal | 65 to 75 | no return of the cardiac rate and rhythm abnormality | normal rate and rhythm came back | variability of rate and rhythm returned
